Columns and labels:
[1] = tested on: experimental DTH reaction in mice; test: In vivo bioassay of inhibition of experimental DTH reactivity (oxazolone ear swelling); set-up: species or system mice (BALB/c or CD1); key to effect on the experimental DTH reaction (monosaccharides): "N.E." indicates that no effect was observed at the tested dosage range of 0.000004-4 µg/gm mouse; details: for DTH: at that dose, value in parentheses in the cell taken as positive control, not reported; for effect on the experimental DTH reaction (monosaccharides): dosage range of 0.000004-4 µg/gm mouse
Method: Groups of inbred BALB/c (Jackson Laboratories, Bar Harbor, ME) or of outbred CD1 (Weizmann Institute Animal Breeding Center, Rehovot, Israel) mice are sensitized on the shaved abdominal skin with 100 µl of 2% oxazolone (OX) in acetone/olive oil (4/1, v/v) applied topically. DTH sensitivity is elicited 5 days later as follows: mice are challenged with 20 µl of 0.5% OX (10 µl administered topically to each side of the ear) in acetone/olive oil. A constant area of the ear is measured immediately before challenge and 24 and 48 h later with a Mitutoyo engineer's micrometer. The individual measuring ear swelling is blinded to the identity of the groups of mice. The increment (△) of ear swelling is expressed as the mean in units of 10^-2 mm or 10^-4 inch (+SE) depending on the micrometer that is used. Percent inhibition is calculated as follows: %Inhibition= 1-((Treated-negative control)/(positive control-negative control)) [formula]
Mice are treated with LMWH as in Example 5.1, injected the day before primary sensitization to OX. On the fifth day after sensitization to OX, the mice are challenged to induce a DTH reaction, as described above.
The positive control is the DTH reaction elicited in immunized mice in the absence of treatment with LMWH. The negative control is the background swelling produced by the antigen in naive (non-immunized) mice.
BALB/c mice (at least 5 mice per group) were sensitized on the shaved abdomen with 3% 4-ethoxymethylene-2-phenyl oxazolone (OX; BDH Chemicals, GB) in acetone/olive oil applied topically. DTH sensitivity was elicited 5 days later as follows. Mice were challenged with 0.5% OX in acetone/olive oil. The ear was measured immediately before challenge and 24 h later with Mitutoyo engineer's micrometer (Japan). The individual measuring the swelling of the ear was blinded to the identity of the groups of mice. To interfere with DTH response, the low molecular weight immuno-regulatory fractions, diluted in PBS, were administrated subcutaneously into the back of the treated mice at the indicated time schedules and concentrations. Treated mice were inspected during and after (>2 months) the treatment and no major side-effects were observed clinically.
In particular, CD1 mice (available from the Weizmann Institute Animal Breeding Center, Rehovot, Israel), 4-12 mice per group, were treated as described in Section 5.2 or 6.8.

[2] = tested on: adjuvant arthritis in Lewis rats; test: Adjuvant arthritis (AA) in rats; assay type: in vivo
[3] = tested on: mortality after gamma irradiation; test: Radioprotective effect in gamma-irradiated mice; assay type: in vivo, BALB/c mice
Method: Groups of female BALB/c mice, 8 weeks old, 5-10 mice per group, were injected subcutaneously with either saline (0.1 ml, control), H-9392 (30 ng/mouse), or glucosamine (10,000 ng/mouse) 1 day before irradiation, and weekly thereafter until termination of the experiment on day 30. All the mice were irradiated to a dose of 700 rads using a ^60Co gamma radiation source.
In a separate experiment, groups of BALB/c mice (5 mice to a group) were likewise exposed to 750 rads of gamma-rays, except that these groups of mice were treated with test substances (saline at 0.1 ml per mouse; H-9392 at 0.3, 3, 30 and 300 ng/mouse; and glucosamine at 1, 10 and 100 µg/mouse) on the day before irradiation, on the sixth day after irradiation, and once again on the thirteenth day after irradiation only. All treatment ceased after the third and last administration.

IDDM of NOD mice = test: Insulin dependent diabetes mellitus (IDDM) of NOD mice; assay type: in vivo
[4] = tested on: secretion of active TNF-α by activated human CD4+ T cells; test: Bioassay of TNF-α activity using human CD4+ T cells derived from PBLs (human PBL bioassay); details: for Bioassay of TNF Activity, in words: conc range of 1 µg/ml - 0.01 pg/ml, inconsistent = not the same result in all three bioassays; for "R" value: zero assigned where no effect is observed
[5] = CD1 mice, s.c., dose giving Inhmax in the higher effective dose range
[6] = CD1 mice, s.c., higher effective dose range
[7] = CD1 mice, s.c., inhibitory, 0 = no effect

| SMILES | Inhmax ([1]; CD1 mice, s.c.) | "R" value [1, 7] | Bioassay of TNF Activity, in words [4] | effect on the experimental DTH reaction, in words (disaccharide markers) ([1]; CD1 mice, s.c.) | also measured |
| --- | --- | --- | --- | --- | --- |
| N[C@H]1C(O)O[C@H](CO)[C@H](O)[C@@H]1O (stereo partly drawn) [GalN, D-Galactosamine] | 50% | 1.25 x 10^6 % x (μg/gm)^-1 | – | – | Dose [1, 5]: 0.12 µg/gm; "R" value [1, 6]: 5.58 x 10^2 % x (µg/gm)^-1; Inhmax [1, 6]: 67%; effect on AA, in words ([2]; s.c. weekly, different dosages (FIG. 38C)): inhibitory effects but to a much lesser degree than that shown by glucosamine |
| N[C@H]1C(O)O[C@H](CO)[C@@H](O)[C@@H]1O (stereo partly drawn) [GlcN, 2-amino-2-deoxy-D-glucose] | 75% | 6.25 x 10^6 % x (μg/gm)^-1 | – | – | mortality rate ([3]; 700 rads, by day 30, s.c. 1 day before irradiation and weekly, H-9392 30 ng/mouse, glucosamine 10,000 ng/mouse, saline 100%): 20%; activity in suppressing mortality after irradiation, in words ([3]; 750 rads, three administrations, 300 ng H-9392, 1 µg glucosamine): moderate activity in suppressing mortality; mice that had become diabetic (IDDM of NOD mice; at 4.5 months, H-9392 30 ng/mouse, glucosamine 10,000 ng/mouse s.c., all control mice diabetic): about 65%; mice that had died, in words (IDDM of NOD mice; by age 5 months, H-9392 30 ng, glucosamine 10,000 ng, all control mice had died): about half; Dose [1, 5]: 0.4 µg/gm; "R" value [1, 6]: 2.2 x 10^2 % x (µg/gm)^-1; Inhmax [1, 6]: 88%; inhibition of the development of AA, of control levels ([2]; s.c. weekly, three dosage levels): 60-80% |
| O=S(=O)(O)N[C@H]1C(O)O[C@H](CO)[C@@H](O)[C@@H]1OS(=O)(=O)O (stereo partly drawn) [GlcN-2,3S, D-Glucosamine-2,3-disulfate] | 68% | 5.67 x 10^4 % x (μg/gm)^-1 | – | – | DTH ([1]; CD1 mice, s.c.): 6.3 ± 1 (19.7 ± 1.2) 10^-2 mm |
| O=S(=O)(O)N[C@H]1C(O)O[C@H](COS(=O)(=O)O)[C@@H](O)[C@@H]1O (stereo partly drawn) [GlcN-2,6S, D-Glucosamine-2,6-disulfate] | 61% | – | – | – | DTH ([1]; CD1 mice, s.c.): 7.7 ± 1 (19.7 ± 1.2) 10^-2 mm |
| O=S(=O)(O)N[C@H]1C(O)O[C@H](CO)[C@@H](O)[C@@H]1O (stereo partly drawn) [GlcN-2S, D-Glucosamine-2-N-sulfate] | – | 0 % x (μg/gm)^-1 | – | – | effect on the experimental DTH reaction (monosaccharides) ([1]; CD1 mice, s.c.): N.E. |
| N[C@H]1C(O)O[C@H](CO)[C@@H](O)[C@@H]1OS(=O)(=O)O (stereo partly drawn) [GlcN-3S, D-Glucosamine-3-sulfate] | – | 0 % x (μg/gm)^-1 | – | – | effect on the experimental DTH reaction (monosaccharides) ([1]; CD1 mice, s.c.): N.E. |
| N[C@H]1C(O)O[C@H](COS(=O)(=O)O)[C@@H](O)[C@@H]1O (stereo partly drawn) [GlcN-6S, D-Glucosamine-6-sulfate] | – | 0 % x (μg/gm)^-1 | – | – | effect on the experimental DTH reaction (monosaccharides) ([1]; CD1 mice, s.c.): N.E. |
| CC(=O)N[C@H]1C(O)O[C@H](CO)[C@@H](O[C@@H]2OC(C(=O)O)=C[C@H](O)[C@H]2O)[C@@H]1O (stereo partly drawn) [H-0895, 4-deoxy-4-en-iduronic acid-(α-1,4)-2-deoxy-2-N-acetylglucosamine] | – | – | Inconsistent | – | Inhmax column, value printed with +: augmentation of the DTH swelling ([1]; CD1 mice, s.c.): +92%; dose giving the augmenting effect on swelling ([1]; CD1 mice, s.c.): about 1.2 picograms disaccharide per gram mouse; DTH ([1]; CD1 mice, s.c.): 37.3 ± 0.7 (18.9 ± 0.7) 10^-2 mm; AA score against control, in words ([2]; 0.1 and 0.4 ng/rat s.c. weekly, day 24): not substantially different from control levels; effect on AA, in words ([2]; 0.1 and 0.4 ng/rat s.c. weekly, within about 2 weeks of induction): increased level of AA development |
| O=C(O)C1=C[C@H](O)[C@@H](O)[C@H](O[C@H]2[C@H](O)[C@@H](NS(=O)(=O)O)C(O)O[C@@H]2CO)O1 (some centres unmarked) [H-1145] | – | 0 % x (μg/gm)^-1 | – | neutral and N.E. | – |
| CC(=O)N[C@H]1C(O)O[C@H](COS(=O)(=O)O)[C@@H](O[C@@H]2OC(C(=O)O)=C[C@H](O)[C@H]2O)[C@@H]1O (some centres unmarked) [H-8642] | – | 0 % x (μg/gm)^-1 | Inconsistent | N.E. | – |
| CC(=O)N[C@H]1C(O)O[C@H](CO)[C@@H](O[C@@H]2OC(C(=O)O)=C[C@H](O)[C@H]2OS(=O)(=O)O)[C@@H]1O (some centres unmarked) [H-8767] | – | 0 % x (μg/gm)^-1 | Inconsistent | N.E. | – |
| N[C@H]1C(O)O[C@H](COS(=O)(=O)O)[C@@H](O[C@@H]2OC(C(=O)O)=C[C@H](O)[C@H]2OS(=O)(=O)O)[C@@H]1O (some centres unmarked) [H-8892] | – | 0 % x (μg/gm)^-1 | No effect | neutral and N.E. | "R" value [4]: 0 % x (pg/ml)^-1 |
| N[C@H]1C(O)O[C@H](COS(=O)(=O)O)[C@@H](O[C@@H]2OC(C(=O)O)=C[C@H](O)[C@H]2O)[C@@H]1O (some centres unmarked) [H-9017] | – | 0 % x (μg/gm)^-1 | No effect | neutral and N.E. | "R" value [4]: 0 % x (pg/ml)^-1 |
| N[C@H]1C(O)O[C@H](CO)[C@@H](O[C@@H]2OC(C(=O)O)=C[C@H](O)[C@H]2OS(=O)(=O)O)[C@@H]1O (some centres unmarked) [H-9142] | – | 0 % x (μg/gm)^-1 | Inconsistent | neutral and N.E. | – |
| O=C(O)C1=C[C@H](O)[C@@H](OS(=O)(=O)O)[C@H](O[C@H]2[C@H](O)[C@@H](NS(=O)(=O)O)C(O)O[C@@H]2COS(=O)(=O)O)O1 (stereo partly drawn) [H-9267, 2-O-sulfate-4-deoxy-4-en-iduronic acid-(α-1,4)-2-deoxy-2-N-sulfate-6-O-sulfateglucosamine] | 64% | 1.60 x 10^5 % x (μg/gm)^-1 | Inconsistent | – | DTH ([1]; CD1 mice, s.c.): 7.2 ± 1 (19.6 ± 1.2) 10^-2 mm; DTH Response ([1]; at the dose giving Inhmax, subcutaneous): 3.5 ± 1 10^-2mm; Dose ([1]; dose giving Inhmax, subcutaneous): 0.0005 µg/gm mouse; "R" value ([1]; inhibitory, maximum % inhibition of DTH divided by the dose giving it, s.c., 0 = no effect): 160,000 % x (µg/gm)^-1; Inhmax ([1]; maximum inhibition of DTH, subcutaneous): 80% |
| CC(=O)N[C@H]1C(O)O[C@H](COS(=O)(=O)O)[C@@H](O[C@@H]2OC(C(=O)O)=C[C@H](O)[C@H]2OS(=O)(=O)O)[C@@H]1O (stereo partly drawn) [H-9517, 2-O-sulfate-4-deoxy-4-en-iduronic acid-(α-1,4)-2-deoxy-2-N-acetyl-6-O-sulfateglucosamine] | 62% | 1.55 x 10^6 % x (μg/gm)^-1 | Inconsistent^c | – | DTH ([1]; CD1 mice, s.c.): 7.6 ± 1 (20.4 ± 0.7) 10^-2 mm |
| CC(=O)N[C@H]1C(O)O[C@H](CO)[C@@H](O)[C@@H]1O (some centres unmarked) [NAc-GlcN, N-Acetylglucosamine] | – | 0 % x (μg/gm)^-1 | – | – | effect on the experimental DTH reaction (monosaccharides) ([1]; CD1 mice, s.c.): N.E. |
| C[C@@H]1C[C@H]2[C@@H]3CCC4=CC(=O)C=C[C@]4(C)[C@@]3(F)[C@@H](O)C[C@]2(C)[C@@]1(O)C(=O)COP(=O)(O)O [dexamethasone phosphate] | – | – | – | – | course of AA after treatment has ended, in words ([2]; 100 µg per rat s.c. daily from day 12): suffered a relapse; effect on AA at 30 days post-induction, in words ([2]; weekly s.c. from day 12 to day 26, 120 ng disaccharide or 100 µg dexamethasone phosphate per rat): only a moderate reduction in the severity of the AA score |

From patent EP1095657A2, “Compositions for the regulation of cytokine activity” (priority 1992, dated 1994)
